The term TGI denotes the concentration at which net growth stops. Broadly, the GI50 is the concentration that inhibits growth by half.

This passage reports TGI and GI50 results from PubChem BioAssay (NCI).

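Step 1: Grow cells in 96-well plates. Step 2: Expose to compound for 48 hours at 5 concentrations. Step 3: Interpolate endpoints linearly; if unreached, use highest concentration. GI50 = concentration required for 50% inhibition of growth. The concentration for full growth arrest is given as TGI.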

Test systems include A549 NSCLC; HT29 colon; RXF 393 renal; MDA-MB-435; UACC-257 melanoma; SNB-75 CNS; UACC-62 melanoma; CAKI-1 renal; SF-539 CNS; LOX IMVI melanoma.
Common to all, as to assay: DTP human tumour cell line panel, 48 h

Take `Nc1ccc(/C=C/c2ccc3cccnc3c2)cc1`: the TGI with A549 NSCLC, in the assay on HT29 colon, in the assay with RXF 393 renal, in the assay on MDA-MB-435, in the assay with UACC-257 melanoma and in the assay on SNB-75 CNS was above 100 µM each time. In addition, the TGI in the assay on UACC-62 melanoma, in the assay on CAKI-1 renal, with SF-539 CNS and with LOX IMVI melanoma was above 100 µM in each case.
Take `COc1ccc(-c2cc(=O)c3c(O)c(OC)c(OC)c(OC)c3o2)cc1`: the TGI was above 100 µM in the assay on A549 NSCLC; above 100 µM in the assay with HT29 colon; 62.2 µM in the assay on RXF 393 renal; above 100 µM in the assay on MDA-MB-435; above 100 µM in the assay with UACC-257 melanoma; above 56.3 µM in the assay with SNB-75 CNS. Further, the concentration for total growth inhibition (TGI) in the assay with UACC-62 melanoma, with CAKI-1 renal, in the assay on SF-539 CNS and in the assay on LOX IMVI melanoma was above 100 µM each time.
On to `Cc1ccc(C(=O)NC2CC2)cc1-c1ccc2[nH]ncc2c1`, for which the GI50 with A549 NSCLC was above 25 µM; in the assay on HT29 colon it was above 25 µM; with RXF 393 renal it was above 25 µM; in the assay with MDA-MB-435, above 25 µM; with UACC-257 melanoma, above 25 µM; with SNB-75 CNS, above 13 µM. Moreover, the GI50 with UACC-62 melanoma, in the assay on CAKI-1 renal, in the assay with SF-539 CNS and in the assay on LOX IMVI melanoma was above 25 µM throughout. The TGI with A549 NSCLC, with HT29 colon, in the assay on RXF 393 renal, in the assay with MDA-MB-435, in the assay on UACC-257 melanoma and in the assay with SNB-75 CNS was above 25 µM throughout. The TGI in the assay with UACC-62 melanoma, with CAKI-1 renal, in the assay on SF-539 CNS and with LOX IMVI melanoma was above 25 µM in each case.
In the case of `CC1(C)CCC[C@]2(C)c3ccccc3C(=O)CC12` (some centres undefined), the GI50 in the assay on A549 NSCLC is 54.1 µM; with HT29 colon it was 43 µM; in the assay with RXF 393 renal it was 82.1 µM; in the assay on MDA-MB-435, 22.9 µM; in the assay with UACC-257 melanoma it was 32.5 µM; with SNB-75 CNS, 34.6 µM. In addition, the GI50 in the assay with UACC-62 melanoma is 18.2 µM; with CAKI-1 renal it was 83.1 µM; in the assay on SF-539 CNS it was 27.1 µM; with LOX IMVI melanoma, 38.4 µM. Also, the TGI in the assay on A549 NSCLC, with HT29 colon, in the assay on RXF 393 renal, in the assay with MDA-MB-435, in the assay on UACC-257 melanoma and with SNB-75 CNS was above 100 µM in each case. Further, the TGI was above 100 µM with UACC-62 melanoma, above 100 µM in the assay with CAKI-1 renal, 75.7 µM with SF-539 CNS and above 100 µM in the assay with LOX IMVI melanoma.
On to `Cc1cccc2c1[nH]c(=O)c1c3ccccc3cn21`, for which the GI50 in the assay with A549 NSCLC is 4.98 µM; in the assay with HT29 colon, 2.16 µM; in the assay with RXF 393 renal, 9.19 µM; with MDA-MB-435, 3.14 µM; in the assay with UACC-257 melanoma, 16.6 µM; with SNB-75 CNS it was 30.7 µM. In addition, the GI50 in the assay with UACC-62 melanoma is 6.87 µM; in the assay on CAKI-1 renal, 2.19 µM; in the assay on SF-539 CNS it was 3.85 µM; in the assay on LOX IMVI melanoma, 6.22 µM. The TGI in the assay with A549 NSCLC is above 100 µM; in the assay on HT29 colon, 13.1 µM; with RXF 393 renal it was 38.4 µM; in the assay with MDA-MB-435 it was 11.6 µM; in the assay with UACC-257 melanoma, 94.4 µM; with SNB-75 CNS it was above 100 µM. Also, the TGI stood at 28.1 µM in the assay with UACC-62 melanoma, 8.75 µM in the assay with CAKI-1 renal, 15.8 µM with SF-539 CNS and 18.4 µM in the assay on LOX IMVI melanoma.
Turning to `CS(=O)(=O)N(c1cc(-c2ccc3ncnc(Nc4ccc(F)c(Cl)c4)c3c2)cnc1Cl)S(C)(=O)=O`, the GI50 in the assay with A549 NSCLC was 1.98 µM; with HT29 colon, 1.07 µM; in the assay on RXF 393 renal, 0.711 µM; in the assay on MDA-MB-435, 1.83 µM; with UACC-257 melanoma it was 1.11 µM; in the assay on SNB-75 CNS, 0.0739 µM. For the same compound, the GI50 with UACC-62 melanoma was 0.49 µM; in the assay on CAKI-1 renal, 0.553 µM; in the assay on SF-539 CNS, 1.05 µM; in the assay with LOX IMVI melanoma it was 0.879 µM. Also, the TGI with A549 NSCLC stood at 11.2 µM; in the assay with HT29 colon, 13.9 µM; in the assay on RXF 393 renal it was 3.4 µM; with MDA-MB-435, 17.2 µM; in the assay on UACC-257 melanoma, 14.5 µM; in the assay on SNB-75 CNS it was 0.698 µM. Moreover, the TGI in the assay with UACC-62 melanoma was 2.93 µM; with CAKI-1 renal it was 3.98 µM; with SF-539 CNS, 4.83 µM; in the assay on LOX IMVI melanoma, 4.73 µM.
With `COc1ccc(S(=O)(=O)N(C(C)=O)c2ccccc2/C=C/c2cc[n+]([O-])cc2)cc1`, the GI50 was 0.636 µM in the assay on A549 NSCLC; 0.422 µM in the assay with HT29 colon; 0.456 µM in the assay on RXF 393 renal; 0.143 µM in the assay on MDA-MB-435; 0.25 µM in the assay on SNB-75 CNS; 0.457 µM with UACC-62 melanoma. In addition, the GI50 in the assay on CAKI-1 renal is 0.588 µM; in the assay on SF-539 CNS it was 0.377 µM; in the assay with LOX IMVI melanoma, 0.955 µM. In addition, the TGI is above 10 µM with A549 NSCLC; above 10 µM in the assay on HT29 colon; above 6.85 µM in the assay on RXF 393 renal; 0.576 µM in the assay with MDA-MB-435; above 10 µM in the assay with UACC-257 melanoma; above 10 µM with SNB-75 CNS. Moreover, the TGI in the assay with UACC-62 melanoma was above 10 µM; in the assay on CAKI-1 renal, above 10 µM; with SF-539 CNS it was 2.45 µM; in the assay with LOX IMVI melanoma it was above 10 µM.
Consider `N#Cc1cccc(N2C(=O)C3C4C=CC(C3C2=O)C2C(=O)N(c3cccc(C#N)c3)C(=O)C42)c1` (centres undefined), for which the TGI in the assay with A549 NSCLC is above 63.1 µM; with HT29 colon, above 63.1 µM; in the assay on RXF 393 renal it was 22.9 µM; in the assay on MDA-MB-435, above 100 µM; in the assay with UACC-257 melanoma, above 63.1 µM; with SNB-75 CNS, 17.6 µM. Besides, the TGI in the assay on UACC-62 melanoma was above 100 µM; with CAKI-1 renal it was above 87 µM; in the assay with SF-539 CNS, 61.4 µM; in the assay on LOX IMVI melanoma it was above 63.1 µM.
On to `CCCCn1c(=O)c(/C=C/C(=O)/C=C/c2cc3ccccc3n(CCCC)c2=O)cc2ccccc21`, for which the GI50 was 1.56 µM in the assay on A549 NSCLC; 0.316 µM with HT29 colon; 1.8 µM with RXF 393 renal; 0.206 µM in the assay on MDA-MB-435; 1.61 µM in the assay on UACC-257 melanoma; 2.8 µM in the assay with SNB-75 CNS. The GI50 is 1.61 µM in the assay on UACC-62 melanoma, 1.87 µM in the assay with CAKI-1 renal, 1.47 µM with SF-539 CNS and 1.24 µM in the assay with LOX IMVI melanoma. Also, the TGI with A549 NSCLC worked out at 3.17 µM; in the assay with HT29 colon, 0.922 µM; in the assay with RXF 393 renal, 3.32 µM; with MDA-MB-435, 0.478 µM; with UACC-257 melanoma, 3 µM; in the assay on SNB-75 CNS, 8.12 µM. The TGI in the assay with UACC-62 melanoma was determined as 3.06 µM; in the assay with CAKI-1 renal, 3.27 µM; in the assay on SF-539 CNS it was 3.57 µM; in the assay on LOX IMVI melanoma it was 2.7 µM.
Take `N#Cc1cccc(C2C3=C(COC3=O)N(CCO)c3cc4c(cc32)OCO4)c1` (centres undefined): the GI50 in the assay with A549 NSCLC was 6.17 µM; in the assay with HT29 colon, 1.49 µM; in the assay on RXF 393 renal, 1.26 µM; in the assay on MDA-MB-435, 0.154 µM; in the assay on UACC-257 melanoma it was above 50 µM; with SNB-75 CNS, 0.745 µM. Besides, the GI50 in the assay with UACC-62 melanoma is 1.66 µM; in the assay on CAKI-1 renal, 1.32 µM; in the assay on SF-539 CNS it was 1.53 µM; in the assay with LOX IMVI melanoma, 2.42 µM. For the same compound, the TGI with A549 NSCLC was above 50 µM; in the assay with HT29 colon, above 50 µM; with RXF 393 renal, 4.54 µM; in the assay with MDA-MB-435, 1.03 µM; with UACC-257 melanoma, above 50 µM; in the assay on SNB-75 CNS, 2.76 µM. The TGI is above 50 µM with UACC-62 melanoma, above 50 µM with CAKI-1 renal, 8.52 µM in the assay on SF-539 CNS and above 50 µM in the assay on LOX IMVI melanoma.
As for `COc1cc(CNc2oc(-c3ccccc3)c(-c3ccccc3)c2C#N)cc(CN2CCN(C)CC2)c1O`, the GI50 is 1.97 µM in the assay on A549 NSCLC; 1.92 µM in the assay with HT29 colon; 1.41 µM in the assay with RXF 393 renal; 1.77 µM in the assay with MDA-MB-435; 1.84 µM in the assay with UACC-257 melanoma; 1.33 µM with SNB-75 CNS. Moreover, the GI50 in the assay with UACC-62 melanoma was 1.77 µM; in the assay on CAKI-1 renal, 1.68 µM; in the assay with SF-539 CNS, 1.72 µM; in the assay on LOX IMVI melanoma, 1.67 µM. In addition, the TGI was 4.16 µM in the assay with A549 NSCLC; 3.99 µM in the assay on HT29 colon; 2.95 µM in the assay on RXF 393 renal; 3.26 µM in the assay on MDA-MB-435; 3.71 µM in the assay on UACC-257 melanoma; 2.94 µM in the assay with SNB-75 CNS. Also, the TGI in the assay on UACC-62 melanoma was 3.47 µM; in the assay on CAKI-1 renal it was 3.17 µM; in the assay with SF-539 CNS it was 3.16 µM; in the assay with LOX IMVI melanoma, 3.18 µM.
Regarding `COc1cc2nccc(Oc3ccc(NC(=O)c4cn(C(C)C)c(=O)n(-c5ccc(F)cc5)c4=O)cc3F)c2cc1OC`, the GI50 with A549 NSCLC is above 26 µM; in the assay on HT29 colon, 6.25 µM; with RXF 393 renal it was above 21.1 µM; with MDA-MB-435, above 100 µM; in the assay on UACC-257 melanoma, 7.65 µM; in the assay with SNB-75 CNS it was 1.03 µM. Also, the GI50 in the assay with UACC-62 melanoma is 6.03 µM; with CAKI-1 renal, 1.91 µM; with SF-539 CNS, 1.6 µM; in the assay with LOX IMVI melanoma it was above 100 µM. Also, the TGI was above 100 µM in the assay with A549 NSCLC; above 100 µM in the assay with HT29 colon; above 100 µM in the assay on RXF 393 renal; above 100 µM in the assay with MDA-MB-435; above 77.5 µM in the assay on UACC-257 melanoma; above 21.9 µM in the assay on SNB-75 CNS. The TGI in the assay on UACC-62 melanoma is above 100 µM; in the assay with CAKI-1 renal, 6 µM; in the assay with SF-539 CNS, 3.38 µM; in the assay with LOX IMVI melanoma, above 100 µM.
